Columns and labels:
[1] = tested on: NCI-H460 human lung carcinoma xenograft; assay: NCI-H460 xenograft tumor growth inhibition, with or without docetaxel; format: in vivo, mouse; conditions: QDx1, Ab095 8 IP, docetaxel 7.5 IV, ADC 10 mg/kg/day IP
Description: (§1) The cell lines A549 and NCI-H460 were obtained from the American Type Culture Collection (ATCC, Manassas, Va.). A549 cell line was further passaged in mice as flank xenograft to improve xenograft tumor growth, resulting in the A549-FP3 line. Cells were cultured as monolayers in RPMI-1640 culture media (Invitrogen, Carlsbad, Calif.) supplemented with 10% Fetal Bovine Serum (FBS, Hyclone, Logan, Utah). To generate xenografts, 5×10^6 (A549 and NCI-H460) viable cells were inoculated subcutaneously into the right flank of immune deficient female SCID-bg mice (Charles River Laboratories, Wilmington, Mass.). The injection volume was 0.2 ml and composed of 1:1 S-MEM:Matrigel Matrigel (BD, Franklin Lakes, N.J.). Tumors were size matched at approximately 223 mm^3. […] Measurements of the length (L) and width (W) of the tumor were taken via electronic caliper and the volume was calculated according to the following equation: V=L×W^2/2. […]
(§2) To refer to efficacy of therapeutic agents, parameters of amplitude (TGI.), durability (TGD) are used. […] Tumor growth inhibition is calculated by 100*(1−Tv/Cv) where Tv and Cv are the mean tumor volumes of the treated and control groups, respectively. […] TGD is calculated by 100*(Tt/Ct−1) where Tt and Ct are the median time periods to reach 1 cm^3 of the treated and control groups, respectively.

[2] = tested on: A549 human lung carcinoma xenograft; assay: A549 FP3 xenograft tumor growth inhibition, with or without docetaxel; format: in vivo, mouse; conditions: QDx1, Ab095 8 IP, docetaxel 7.5 IV, ADC 10 mg/kg/day IP
Description: as §1, §2

SMILES: CC(=O)O[C@@]12CO[C@@H]1C[C@H](O)[C@@]1(C)C(=O)[C@H](O)C3=C(C)[C@@H](OC(=O)[C@H](O)[C@@H](NC(=O)OC(C)(C)C)c4ccccc4)C[C@@](O)([C@@H](OC(=O)c4ccccc4)[C@H]21)C3(C)C [Docetaxel, docetaxel, reference compound]
- TGD [1]: 30%
- TGImax [1]: 35%
- TGD [2]: 80%
- TGImax [2]: 62%
